The source of these data is paper PMC10805800 (Cell Discovery, 2024).

Holding throughout (type): binding
Assay [1] deals with T1, LRRK2 (Leucine-rich repeat kinase 2) (Homo sapiens, UniProt Q5S007).
T1 construct: full-length LRRK2
Briefly: cryo-EM structure at […] Å; also ADP-Glo kinase inhibition (RCKWm). Background: ADP-Glo first removes unused ATP, then detects ADP through luciferase.

Assay [2] has as its target T2, LRRK2 (Leucine-rich repeat kinase 2) (Homo sapiens, UniProt Q5S007, M1732R).
T2 construct: LRRK2^RCKWm (ROC-COR-KIN-WD40, without ARM-ANK-LRR domains)
T2 sequence (Q5S007 1327-2527 M1732R): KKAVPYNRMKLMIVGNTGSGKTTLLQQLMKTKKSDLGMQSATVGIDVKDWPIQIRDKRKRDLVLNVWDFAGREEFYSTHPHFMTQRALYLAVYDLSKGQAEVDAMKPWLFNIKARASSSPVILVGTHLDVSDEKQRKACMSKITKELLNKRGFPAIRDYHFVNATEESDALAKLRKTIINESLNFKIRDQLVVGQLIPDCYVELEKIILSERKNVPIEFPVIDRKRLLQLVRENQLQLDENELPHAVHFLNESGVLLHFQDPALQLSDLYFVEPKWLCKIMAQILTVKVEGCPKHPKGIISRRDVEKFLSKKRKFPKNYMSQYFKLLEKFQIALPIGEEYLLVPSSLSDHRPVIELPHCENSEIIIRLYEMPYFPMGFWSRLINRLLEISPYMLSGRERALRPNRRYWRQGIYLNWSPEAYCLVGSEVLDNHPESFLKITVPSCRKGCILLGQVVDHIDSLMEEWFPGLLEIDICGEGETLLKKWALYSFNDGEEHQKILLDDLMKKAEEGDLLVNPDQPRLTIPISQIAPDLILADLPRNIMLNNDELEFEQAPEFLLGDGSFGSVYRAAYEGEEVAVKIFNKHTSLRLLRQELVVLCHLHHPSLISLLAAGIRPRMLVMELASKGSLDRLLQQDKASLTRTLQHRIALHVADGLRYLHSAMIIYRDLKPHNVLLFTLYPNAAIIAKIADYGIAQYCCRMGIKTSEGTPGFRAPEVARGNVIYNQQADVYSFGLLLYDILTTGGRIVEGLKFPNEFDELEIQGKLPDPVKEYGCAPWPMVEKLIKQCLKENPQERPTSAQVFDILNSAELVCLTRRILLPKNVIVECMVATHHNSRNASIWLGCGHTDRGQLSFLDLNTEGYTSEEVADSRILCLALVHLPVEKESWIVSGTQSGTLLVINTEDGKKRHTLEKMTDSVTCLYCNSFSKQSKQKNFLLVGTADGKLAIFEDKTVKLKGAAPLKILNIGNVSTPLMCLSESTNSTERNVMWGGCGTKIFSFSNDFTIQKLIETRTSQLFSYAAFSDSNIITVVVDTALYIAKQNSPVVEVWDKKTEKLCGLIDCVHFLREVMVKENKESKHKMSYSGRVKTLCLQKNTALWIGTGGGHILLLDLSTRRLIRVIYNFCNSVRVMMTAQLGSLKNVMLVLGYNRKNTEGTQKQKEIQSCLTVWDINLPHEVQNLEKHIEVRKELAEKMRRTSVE
Nature of the assay: cryo-EM structure at […] Å; also ADP-Glo kinase inhibition.

Assay [3] has as its target T1, LRRK2 (Leucine-rich repeat kinase 2). Briefly: cryo-EM structure at […] Å; also ADP-Glo kinase inhibition (RCKWm). The source holds these as a separate data set.

T1 sequence (Q5S007 whole entry): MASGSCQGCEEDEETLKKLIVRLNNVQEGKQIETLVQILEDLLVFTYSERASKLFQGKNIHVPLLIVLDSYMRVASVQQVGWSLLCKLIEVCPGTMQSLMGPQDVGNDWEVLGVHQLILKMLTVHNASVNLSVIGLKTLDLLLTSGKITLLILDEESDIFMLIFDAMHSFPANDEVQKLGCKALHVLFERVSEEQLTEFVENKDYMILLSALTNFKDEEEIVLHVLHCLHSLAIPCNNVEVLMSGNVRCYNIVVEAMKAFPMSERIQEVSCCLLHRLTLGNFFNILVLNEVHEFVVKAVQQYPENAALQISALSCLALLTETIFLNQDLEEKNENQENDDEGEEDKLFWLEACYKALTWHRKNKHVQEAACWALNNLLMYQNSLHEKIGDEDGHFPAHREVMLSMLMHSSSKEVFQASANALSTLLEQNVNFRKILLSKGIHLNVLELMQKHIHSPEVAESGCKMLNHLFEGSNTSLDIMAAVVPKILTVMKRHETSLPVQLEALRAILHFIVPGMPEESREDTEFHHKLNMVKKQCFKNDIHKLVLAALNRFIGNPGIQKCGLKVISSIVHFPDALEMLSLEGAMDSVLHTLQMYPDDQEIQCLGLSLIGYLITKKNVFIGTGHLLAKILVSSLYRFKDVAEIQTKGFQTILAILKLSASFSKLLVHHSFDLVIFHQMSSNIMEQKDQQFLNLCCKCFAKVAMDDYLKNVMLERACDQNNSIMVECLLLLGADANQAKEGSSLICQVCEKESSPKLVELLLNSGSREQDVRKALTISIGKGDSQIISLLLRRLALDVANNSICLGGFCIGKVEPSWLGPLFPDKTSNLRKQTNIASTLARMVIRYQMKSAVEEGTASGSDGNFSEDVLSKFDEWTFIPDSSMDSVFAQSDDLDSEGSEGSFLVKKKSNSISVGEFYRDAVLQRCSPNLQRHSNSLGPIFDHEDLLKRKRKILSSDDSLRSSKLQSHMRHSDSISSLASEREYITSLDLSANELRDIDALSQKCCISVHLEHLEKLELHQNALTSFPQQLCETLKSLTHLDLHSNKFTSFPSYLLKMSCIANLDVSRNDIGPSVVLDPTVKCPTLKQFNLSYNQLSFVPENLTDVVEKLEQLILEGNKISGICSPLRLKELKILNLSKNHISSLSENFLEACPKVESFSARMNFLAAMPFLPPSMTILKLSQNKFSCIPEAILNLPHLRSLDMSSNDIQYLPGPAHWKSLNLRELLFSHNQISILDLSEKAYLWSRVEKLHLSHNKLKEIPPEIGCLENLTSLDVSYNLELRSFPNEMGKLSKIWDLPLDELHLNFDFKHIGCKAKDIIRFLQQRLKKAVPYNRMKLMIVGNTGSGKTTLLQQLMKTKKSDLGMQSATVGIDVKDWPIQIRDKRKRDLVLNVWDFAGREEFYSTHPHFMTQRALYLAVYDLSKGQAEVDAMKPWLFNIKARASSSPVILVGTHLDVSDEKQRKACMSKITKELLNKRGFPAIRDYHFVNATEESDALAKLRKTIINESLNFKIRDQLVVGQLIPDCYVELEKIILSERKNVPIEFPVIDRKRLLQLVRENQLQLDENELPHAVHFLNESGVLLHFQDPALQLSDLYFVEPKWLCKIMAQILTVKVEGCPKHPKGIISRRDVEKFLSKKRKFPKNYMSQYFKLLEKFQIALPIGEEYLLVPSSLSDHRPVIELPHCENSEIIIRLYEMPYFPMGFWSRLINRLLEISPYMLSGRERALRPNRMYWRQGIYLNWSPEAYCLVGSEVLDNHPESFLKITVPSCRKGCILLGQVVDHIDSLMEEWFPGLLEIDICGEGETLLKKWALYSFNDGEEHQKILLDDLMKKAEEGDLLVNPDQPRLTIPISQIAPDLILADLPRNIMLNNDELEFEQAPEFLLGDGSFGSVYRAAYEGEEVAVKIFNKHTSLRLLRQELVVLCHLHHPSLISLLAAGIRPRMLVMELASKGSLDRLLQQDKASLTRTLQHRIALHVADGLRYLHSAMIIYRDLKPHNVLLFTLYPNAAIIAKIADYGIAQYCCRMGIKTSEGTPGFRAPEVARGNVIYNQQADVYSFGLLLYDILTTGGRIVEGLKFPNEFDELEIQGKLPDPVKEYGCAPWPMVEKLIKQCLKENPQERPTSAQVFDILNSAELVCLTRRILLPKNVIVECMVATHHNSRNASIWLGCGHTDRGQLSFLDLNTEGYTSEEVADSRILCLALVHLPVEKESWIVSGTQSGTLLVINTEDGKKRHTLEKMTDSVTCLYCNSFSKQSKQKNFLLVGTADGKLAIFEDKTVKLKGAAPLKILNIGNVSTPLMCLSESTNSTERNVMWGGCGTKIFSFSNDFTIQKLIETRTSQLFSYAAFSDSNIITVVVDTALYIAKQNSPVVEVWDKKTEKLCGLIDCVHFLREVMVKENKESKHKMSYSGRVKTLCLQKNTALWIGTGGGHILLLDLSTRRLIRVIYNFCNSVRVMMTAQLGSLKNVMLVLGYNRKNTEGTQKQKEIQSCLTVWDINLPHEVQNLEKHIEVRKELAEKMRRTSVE

For the molecule `CNC(=O)c1cc(Oc2ccc(NC(=O)Nc3cc(C(C)(C)C)nn3-c3ccc4ncccc4c3)c(F)c2)ccn1` [rebastinib], the “cryo-EM structure at 3.7 Å; also ADP-Glo kinase inhibition (RCKWm)” value in assay [1] is reported as 8U8B (LRRK2–rebastinib), 8U8A (LRRK2–ponatinib), 8U7L (LRRK2–GZD-824). For the molecule `COc1cc(C(=O)N2CCC(N3CCN(C)CC3)CC2)ccc1Nc1ncc2c(n1)N(C)c1ccccc1C(=O)N2C` [LRRK2-IN-1], in assay [2], the “cryo-EM structure at 3.5 Å; also ADP-Glo kinase inhibition” value is 8U7H (LRRK2^RCKWm–GNE-7915) and 8FO7 (LRRK2^RCKWm–LRRK2-IN-1). With `Cc1ccc(C(=O)Nc2ccc(CN3CCN(C)CC3)c(C(F)(F)F)c2)cc1C#Cc1cnc2[nH]ncc2c1` [GZD-824], in assay [3], the “cryo-EM structure at 3.6 Å; also ADP-Glo kinase inhibition (RCKWm)” value was “GZD-824 and ponatinib are analogous compounds and bind to LRRK2 in a similar manner”.
